For one test, the system named is RBL-2H3 cells. Description: Fluorescence-based assay of store-operated calcium entry in RBL-2H3 cells (FLIPR, thapsigargin). Format: cell-based, rat. To be noted: Rattus norvegicus, Fluo-4, Upslope 0-7 sec, read-out: FLIPR_CRAC: 9 pt CRC - Fluo4_TG-D: RBL-2H3: IC50: Upslope 0-7 sec. The method, then:
B. Fluorescence-Based Assay of Store-Operated Calcium Entry in RBL-2H3 Cells.
RBL-2H3 cells are obtained from ATCC and maintained in complete medium with 10% FBS at 37° C./6% CO2.
The day prior to performing the assay, RBL-2H3 cells are plated in 50 μl of complete medium in a 384 well plate. Cells are grown at 37° C./6% CO2 overnight and grow to 50-60% confluence by the next day. On the assay day, 1.5 μM Fluo-4-AM dye (Invitrogen) in complete medium is added and incubated for 1 hour at RT. Cells are washed twice in Ca^2+-free HBSS buffer and 35 μl Ca^2+-free HBSS buffer is added to each well. 10 μl of a test compound prepared in a Ca^2+-free HBSS solution at 4.5× of the desired concentration is added to a well and incubated for 5 minutes at RT. 10 μl of thapsigargin prepared in a Ca^2+-free HBSS solution at 5.5× of the desired concentration (5.5 uM) is added to each well and incubated for an additional 25 minutes. The initial baseline fluorescence signal is measured with a FLIPR^384 (Molecular Devices) plate reader. 5 μl of 12× calcium in HBSS (12 mM) is added and changes in cellular fluorescence are measured with the FLIPR^384 plate reader. In each well, the change in the fluorescent signal as a function of time due to calcium entry into the cell is determined by calculating the difference between the fluorescent signal measured 7 seconds after calcium addition and the initial baseline fluorescence signal at time zero (t=0). This parameter is designated Upslope. The IC50 value is calculated as the concentration at which 50% of the Upslope is inhibited.

The test system of test [1] is secreted IL-2 in Jurkat T cells. In words: In vitro assay of cytokine (IL-2) release from T cells. The format is cell-based. To be noted: Homo sapiens; Jurkat E6-1 cells; PHA/TPA stimulation 20 hours; IL-2 ELISA. As for the experimental part:
In Vitro Assay of Cytokine Release from T Cells
Jurkat E6-1 cells are obtained from ATCC and maintained in complete medium with 10% FBS at 37° C./6% CO2.
The day prior to performing the assay, Jurkat T cells are plated in 90 μL of HBSS Buffer with 1.8 mM CaCl2 and 1.75% fetal bovine serum (FBS) in a 96 well plate at a density of 1.5×10^5 cells/well for 3 hours. 10 μl of 10× test compound prepared in HBSS is added and incubated for 10 minutes at 37° C./6% CO2. Cells are stimulated by the addition of 10 μl of 11×PHA/TPA (27.5 μg/mL PHA/880 nM TPA) and incubated at 37° C./6% CO2 for 20 hours. On the following day, the supernatants are collected and assayed for IL-2 levels by ELISA according to the manufacturer's protocols. The IC50 value is calculated as the concentration at which 50% of secreted IL-2 in vehicle treated cells is inhibited.
Background: ELISA stands for enzyme-linked immunosorbent assay.

For test [2], the target named is T1, recombinant human STIM1 and Orai1 (Homo sapiens, UniProt Q96D31).
T1 construct: c-myc (C); expressed in transfected cells; host or cells: HEK-293 cells stably expressing human STIM1 and human Orai1
T1 sequence (Q96D31 whole entry): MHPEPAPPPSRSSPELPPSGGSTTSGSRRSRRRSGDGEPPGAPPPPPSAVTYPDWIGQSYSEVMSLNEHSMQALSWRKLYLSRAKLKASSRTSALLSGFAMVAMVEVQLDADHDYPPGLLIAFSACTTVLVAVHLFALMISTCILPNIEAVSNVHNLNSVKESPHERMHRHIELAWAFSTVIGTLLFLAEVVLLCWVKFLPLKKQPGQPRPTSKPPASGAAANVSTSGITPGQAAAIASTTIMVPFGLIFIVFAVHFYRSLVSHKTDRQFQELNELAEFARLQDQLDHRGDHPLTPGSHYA
In words: Fluorescence-based assay of store-operated calcium entry in Orai1/STIM1 stable cells (FLIPR). Format: cell-based. To be noted: HEK-293 cells stably expressing human Orai1/STIM1; Fluo-4; Peak-Basal signal; read-out: FLIPR_CRAC: 9 point CRC: O1S1_JR251: IC50: Peak_over_Basal. The method, then: A. Fluorescence-Based Assay of Store-Operated Calcium Entry in Orai1/Stim1 Stable Cells.
Cells stably expressing recombinant human STIM1 and Orai1 are generated by transfecting a human Orai1 expression plasmid (pcDNA3.1-Orai1-cmyc) into HEK-293 cells stably overexpressing human STIM1 (Roos et al. 2005 JCB 169(3): 435-445). Colonies of cells stably expressing both STIM1 and Orai1 proteins are selected and then subcloned by limiting dilution. Cells were cultured at 37° C./6% CO2 in complete medium with 10% FBS and appropriate selection markers.
The day prior to performing the assay Orai1/STIM1 stable cells are plated in 50 μL of complete medium at 90-95% confluence in a 384 well plate. Cells are grown at 37° C./6% CO2 overnight. On the day of the assay, 1.5 μM fluo-4-AM (Invitrogen) in complete medium is added to the cells, which are then incubated for 1 hour at RT. Cells are washed once in Ca^2+-free HBSS (Hank's buffered saline solution) and 35 μl of Ca^2+-free HBSS is added to each well. Test compounds are added to wells in a 10 μL Ca^2+-free HBSS solution, prepared at 4.5× the desired final concentration, and incubated for 30 minutes at RT. The initial baseline fluorescence signal is then measured with a FLIPR^384 (Molecular Devices) plate reader. Calcium entry is initiated by adding 5 μl of 10×CaCl2 (10 mM) in HBSS, and changes in cellular fluorescence are measured with the FLIPR^384 plate reader. In each well, the magnitude of the fluorescence signal as a result of calcium entry into the cell is determined by calculating the difference between the peak fluorescence signal measured after calcium addition and the initial baseline fluorescence signal (designated Peak-Basal). IC50 values are typically calculated as the concentration that inhibited 50% of the Peak-Basal signal.

For six compounds, IC50 results are on record in US9079891B2, “Compounds that modulate intracellular calcium” (CALCIMEDICA, INC., priority 2010, dated 2015).

Some results are limits rather than exact numbers.

Take `Cn1nc(-c2ccco2)cc1-c1ccc(C(=O)Nc2c(F)cccc2F)s1` [Example 56, N-(2,6-difluorophenyl)[5-(3-(2-furyl)-1-methylpyrazol-5-yl](2-thienyl)]carboxamide]: the IC50 (usually the concentration that inhibits the measured activity by half) in the test with RBL-2H3 cells was less than 600 nM; in test [1] it was less than 50 nM; in test [2], less than 600 nM.
Take `Cn1nc(-c2ccco2)cc1-c1ccc(C(=O)Nc2ccccc2F)s1` [Example 61]: the results for the IC50 (with RBL-2H3 cells; in test [1]; in test [2]) were less than 600 nM, less than 50 nM and less than 600 nM, respectively.
As to `Cn1nc(C(F)(F)F)cc1-c1ccc(NC(=O)c2c(F)cccc2F)s1` [Example 74, (2,6-difluorophenyl)-N-{5-[1-methyl-3-(trifluoromethyl)pyrazol-5-yl](2-thienyl)}carboxamide], the IC50 in the test with RBL-2H3 cells is less than 600 nM; in test [1], less than 50 nM; in test [2], less than 600 nM.
Take `Cc1cc2c(cc1-c1cnc(NC(=O)c3ccncc3F)s1)OC(F)(F)O2` [Example 82]: the IC50 in the test with RBL-2H3 cells is less than 600 nM; in test [1], less than 50 nM; in test [2], less than 600 nM.
Take `Cc1cc2c(cc1-c1cnc(NC(=O)c3c(F)cccc3F)s1)OC(F)(F)O2` [Example 83, (2,6-difluorophenyl)-N-[5-(2,2-difluoro-6-methylbenzo[d]1,3-dioxolen-5-yl)(1,3-thiazol-2-yl)]carboxamide]: the concentration for half-maximal inhibition (IC50) was less than 600 nM in the test on RBL-2H3 cells, less than 50 nM in test [1] and more than 1200 nM in test [2].
In the same order, the values of `Cc1cc2c(cc1-c1cnc(NC(=O)c3ccccc3F)s1)OC(F)(F)O2` [Example 84] are less than 600 nM, less than 50 nM and less than 600 nM.
